Tests used:
[1] = system: two-spotted mite (Tetranychus urticae Koch); test: Mite foliage spray test; type: in vivo; design: key: A: Excellent control; B: Partial control; C: No control; settings: 500 ppm, six days
Method: (§1) Suspensions of the test compounds were prepared by dissolving one gram of compound in 50 milliliters of acetone in which had been dissolved 0.1 gram (10 percent of the weight of compound) of an alkylphenoxy polyethoxyethanol surfactant, as an emulsifying or dispersing agent. The resulting solution was mixed into 150 milliliters of water to give roughly 200 milliliters of a suspension containing the compound in finely divided form. The thus-prepared stock suspension contained 0.5 percent by weight of test compound. The test concentrations in parts per million by weight employed in the tests described hereinbelow were obtained by appropriate dilutions of the stock suspension with water. The test procedures were as follows:
Adults and nymphal stages of the two-spotted mite (Tetranychus urticae Koch), reared on Tendergreen bean plants at 80±5 percent relative humidity, were the test organisms. Infested leaves from a stock culture were placed on the primary leaves of two bean plants six to eight inches in height, growing in a two- and-a-half inch clay pot. 150-200 mites, a sufficient number for testing, transferred from the excised leaves to the fresh plants in a period of twenty-four hours. Following the twenty-four hour transfer period, the excised leaves were removed from the infested plants. The test compounds were formulated by diluting the stock suspension with water to give a suspension with water to give a suspension containing 500 parts of test compound per million parts of final formulation. The potted plants (one pot per compound) were placed on a revolving turntable and sprayed with 100-110 milliliters of test compound formulation by use of a DeVilbiss spray gun set at 40 psig. air pressure. This application, which lasted for 25 seconds was sufficient to wet the plants to run-off. As a control, 100-110 milliliters of a water solution containing acetone and emulsifier in the same concentrations as the test compound formulation, but containing no test compound, were also sprayed on infested plants. The sprayed plants were held at 80±5 percent relative humidity for six days, after which a mortality count of motile forms was made. Microscopic examination for motile forms was made on the leaves of the test plants. Any individual which was capable of locomotion upon prodding, was considered living.
(§2) In these test the pesticidal activity of the compounds against aphid, mite, Southern Armyworm, Mexican Bean Beetle, and house fly was rated as follows: […]

Bean = test: Phytotoxicity test, bean; type: in vivo; design: key: 1: no perceptible injury; 2: intermediate degrees of injury based upon the number and extent to which leaves were injured; 3: intermediate degrees of injury based upon the number and extent to which leaves were injured; 4: intermediate degrees of injury based upon the number and extent to which leaves were injured; 5: the plant was dead; settings: 2500 ppm spray, after ten days
Method: as §1
(§3) Experiments were also conducted to determine the phytotoxicity of representative compositions with respect to healthy fresh plants. Solutions of the compounds were prepared as described above to provide a concentration of 2500 parts per million of the test compound. The test plants were sprayed in accordance with the procedure described above for the Mite Foliage Spray Test so as to deliver approximately 100 milliliters of test solution to the leaves of each plant tested. The sprayed plants and controls were set aside for approximately one hour to allow the solutions to dry and were then placed in the greenhouse. After ten days the plants were visually inspected to determine the extent of foliage injury. A rating of 1 indicates no perceptible injury; 5 indicates the plant was dead and ratings of 2, 3 and 4 indicate intermediate degrees of injury based upon the number and extent to which leaves were injured.

[2] = system: southern armyworm (Prodenia Eridania, (Cram.)); test: Southern armyworm leaf spray test; type: in vivo; design: key: A: Excellent control; B: Partial control; C: No control; settings: 500 ppm, three days
Method: as §1
Larvae of the southern armyworm (Prodenia Eridania, (Cram.), reared on Tendergreen bean plants at a temperature of 80°±5° F. and relative humidity of 50±5 percent, constituted the test insects.
The test compounds were formulated by diluting the stock suspension with water to give a suspension containing 500 parts of test compound per million parts of final formulation. Potted Tendergreen bean plants of standard height and age were placed on a revolving turntable and sprayed with 100-110 milliliters of test compound formulation by use of a DeVilbiss spray gun set at 10 psig. air pressure.
This application which lasted 25 seconds was sufficient to wet plants to run-off. As a control, 100-110 milliliters of a water-acetone-emulsifier solution containing no test compound were also sprayed on infested plants. When dry, the paired leaves were separated and each one was placed in a 9 centimeter Petri dish lined with moistened filter paper. Five randomly selected larvae were introduced into each dish and the dishes were closed. The closed dishes were labeled and held at 80°-85° F. for three days. Although the larvae could easily consume the whole leaf within twenty-four hours, no more food was added. Larvae which were unable to move the length of the body, even upon stimulation by prodding, were considered dead. Percent mortality was recorded for various concentration levels.
as §2

Soybean = test: Phytotoxicity test, soybean; type: in vivo; design: key: 1: no perceptible injury; 2: intermediate degrees of injury based upon the number and extent to which leaves were injured; 3: intermediate degrees of injury based upon the number and extent to which leaves were injured; 4: intermediate degrees of injury based upon the number and extent to which leaves were injured; 5: the plant was dead; settings: 2500 ppm spray, after ten days
Method: as §1, §3

Corn = test: Phytotoxicity test, corn; type: in vivo; design: key: 1: no perceptible injury; 2: intermediate degrees of injury based upon the number and extent to which leaves were injured; 3: intermediate degrees of injury based upon the number and extent to which leaves were injured; 4: intermediate degrees of injury based upon the number and extent to which leaves were injured; 5: the plant was dead; settings: 2500 ppm spray, after ten days
Method: as §1, §3

Cotton = test: Phytotoxicity test, cotton; type: in vivo; design: key: 1: no perceptible injury; 2: intermediate degrees of injury based upon the number and extent to which leaves were injured; 3: intermediate degrees of injury based upon the number and extent to which leaves were injured; 4: intermediate degrees of injury based upon the number and extent to which leaves were injured; 5: the plant was dead; settings: 2500 ppm spray, after ten days
Method: as §1, §3

Tomato = test: Phytotoxicity test, tomato; type: in vivo; design: key: 1: no perceptible injury; 2: intermediate degrees of injury based upon the number and extent to which leaves were injured; 3: intermediate degrees of injury based upon the number and extent to which leaves were injured; 4: intermediate degrees of injury based upon the number and extent to which leaves were injured; 5: the plant was dead; settings: 2500 ppm spray, after ten days
Method: as §1, §3

[3] = system: house flies (Musca domestica, L.); test: Fly bait test; type: in vivo; design: key: A: Excellent control; B: Partial control; C: No control; settings: 500 ppm, bait in 10 percent sugar solution, twenty four hours
Method: as §1
Four to six day old adult house flies (Musca domestica, L.) reared according to the specifications of the Chemical Specialties Manufacturing Association (Blue Book, McNair-Dorland Co., NY., 1954; pages 243-244, 261) under controlled conditions of 80°±5° F. and 50±5 percent relative humidity, were the test insects. The flies were immobilized by anesthetizing with carbon dioxide and twenty five immobilized individuals, males and females, were transferred to a cage consisting of a standard food strainer about five inches in diameter which was inverted over a wrapping-paper-covered surface. The test compounds were formulated by diluting the stock suspension with a 10 percent (by weight) sugar solution to give a suspension containing 500 parts of test compound per million parts of final formulation, by weight. Ten milliliters of the test formulation were added to a souffle cup containing a one inch square of an absorbent cotton pad. This bait cup was introduced and centered on the blotting paper under the food strainer prior to admitting the anesthetized flies. The caged flies were allowed to feed on the bait for twenty four hours, at a temperature of 80°±5° F. and the relative humidity of 50±5 percent.
as §2

[4] = system: Mexican bean beetle (Epilachna varivestis, Muls.); test: Mexican bean beetle leaf spray test; type: in vivo; design: key: A: Excellent control; B: Partial control; C: No control; settings: 500 ppm, three days
Method: as §1
Fourth instar larvae of the Mexican bean beetle (Epilachna varivestis, Muls.) reared on Tendergreen bean plants at a temperature of 80°±5° and 50±5 percent relative humidity, were the test insects.
The test compounds were formulated by diluting the stock suspension with water to give a suspension containing 500 parts of test compound per million parts of final formulation. Potted Tendergreen bean plants of standard height and age were placed on a revolving turntable and sprayed with 100-110 milliliters of test compound formulation by use of a DeVilbiss spray gun set at 10 psig air pressure. This application, which lasted 25 seconds was sufficient to wet plants to run-off. As a control, 100-110 milliliters of a water-acetone-emulsifier solution containing no test compound were also sprayed on infested plants. When dry, the paired leaves were separated and each was placed in a 9 centimeter Petri dish lined with moistened filter paper. Five randomly selected larvae were introduced into each dish, and the dishes were closed. The closed dishes were labeled and held at a temperature of 80°±5° F. for three days. Although the larvae could easily consume the leaf within 24 to 48 hours, no more food was added. Larvae which were unable to move the length of the body, even upon stimulation, were considered dead.
as §2

[5] = Water solubility (Table I); type: physicochemical; settings: 25° C.
[6] = system: bean aphid (Aphis fabae Scop.); test: Bean aphid foliage spray test; type: in vivo; design: key: A: Excellent control; B: Partial control; C: No control; settings: 500 ppm, 24 hour
Method: as §1
Adults and nymphal stages of the bean aphid (Aphis fabae Scop.) reared on potted dwarf nasturtium plants at 65°-70° F. and 50-70 percent relative humidity, constituted the test insects. For testing purposes, the number of aphids per pot was standardized to 100-150 by trimming plants containing excess aphids.
The test compounds were formulated by diluting the stock suspension with water to give a suspension containing 500 parts of test compound per million parts of final formulation.
The potted plants (one pot per compound tested) infested with 100-150 aphids, were placed on a revolving turntable and sprayed with 100-110 milliliters of test compound formulation by use of a DeVilbiss spray gun set at 40 psig. air pressure. This application, which lasted 25 seconds, was sufficient to wet the plants to run-off. As a control, 100-110 milliliters of a water-acetone-emulsifier solution containing no test compound were also sprayed on infested plants. After spraying, the pots were placed on their sides on a sheet of white standard mimeograph paper which had been previously ruled to facilitate counting. Temperature and humidity in the test room during the 24 hour holding period were 65°-70° F. and 50-70 percent, respectively. Aphids which fell onto the paper and were unable to remain standing after being uprighted were considered dead. Aphids remaining on the plants were observed closely for movement and those which were unable to move the length of the body upon stimulator by prodding were considered dead. Percent mortality was recorded for various concentration levels.
as §2

| Structure (SMILES) | Pesticidal activity, Mite [1] | POST-Emergent Herbicidal (phytotoxicity rating), Bean (Bean) | Pesticidal activity, Southern Armyworm [2] | POST-Emergent Herbicidal (phytotoxicity rating), Soybean (Soybean) | POST-Emergent Herbicidal (phytotoxicity rating), Corn (Corn) | POST-Emergent Herbicidal (phytotoxicity rating), Cotton (Cotton) | POST-Emergent Herbicidal (phytotoxicity rating), Tomato (Tomato) | Pesticidal activity, Fly [3] | Pesticidal activity, Mexican Bean Beetle [4] | solubility [5] [mg/mL] | Pesticidal activity, Aphid [6] |
| --- | --- | --- | --- | --- | --- | --- | --- | --- | --- | --- | --- |
| CCCCCCCCCCCCCCCCCC[N+](C)(C)CC(=O)N(C)C(=O)Oc1cccc2c1OC(C)(C)C2 | C | 2 | A | 2 | 2 | 2 | 1 | A | A | > 250 | B |
| CN(C(=O)C[n+]1ccn(C)c1)C(=O)Oc1cccc2c1OC(C)(C)C2 | A | 2 | A | 2 | 1 | 1 | 1 | A | A | 370 | A |
| CN(C(=O)C[N+](C)(C)C)C(=O)Oc1cccc2c1OC(C)(C)C2 | C | 1 | A | 2 | 1 | 2 | 2 | A | A | 570 | A |
| CN(C(=O)C[N+]1(C)CCOCC1)C(=O)Oc1cccc2c1OC(C)(C)C2 | B | – | A | – | – | – | – | A | A | 140 | A |
| CCCCCCCCCCCC[N+](C)(C)CC(=O)N(C)C(=O)Oc1cccc2c1OC(C)(C)C2 | A | 2 | A | 2 | 2 | 2 | 2 | A | A | > 250 | A |
| CN(C(=O)C[n+]1ccc(N(C)C)cc1)C(=O)Oc1cccc2c1OC(C)(C)C2 | A | 2 | A | 2 | 1 | 1 | 1 | A | A | 160 | A |
| CN(C(=O)C[N+]1(C)CCCC1)C(=O)Oc1cccc2c1OC(C)(C)C2 | A | 2 | A | 2 | 1 | 2 | 1 | A | A | 490 | A |
